Source: US9523100B2, “Pesticidal compositions and related methods” (DOW AGROSCIENCES LLC, priority 2013, dated 2016)
Where two headings read alike, the source gives them in different places.

Experiments:
[1] = tested on: Green Peach Aphid (GPA) (Myzus persicae) (MYZUPE); experiment: Bioassay for Green Peach Aphid (GPA), foliar spray on cabbage seedlings; type: in vivo; details: 72 h, read-out: GPA 200 ppm, % Control (or Mortality) rating
Outline: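 Foliar spray test: 200 ppm solutions (0.025% Tween 20 in water, 20% acetone/methanol) applied to both leaf sides of aphid-infested cabbage seedlings. After 3 days at about 25° C, live aphids per plant were counted; control corrected to solvent check via Abbott's formula.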

[2] = tested on: Sweetpotato Whitefly-Crawler (WF) (Bemisia tabaci) (BEMITA); experiment: Insecticidal test for Sweetpotato Whitefly-Crawler (WF) in foliar spray assay on cotton plants; type: in vivo; details: 216 h, read-out: WF 200 ppm, % Control (or Mortality) rating
Outline: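 Whitefly nymph control on egg-infested cotton (eggs laid 4–5 days pre-treatment), foliar spray at 200 ppm test compound. Live late-stage nymphs counted microscopically 9 days later at ~25 °C; control calculated by Abbott's formula relative to acetone-diluent-sprayed plants.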

[3] = 200 ppm foliar spray on cabbage seedlings, graded after three days, Abbott corrected % control
[4] = 200 ppm foliar spray on cotton plants, graded after 9 days, Abbott corrected % control

Compound	mortality at 200 ppm ([1]; foliar)	mortality at 200 ppm ([2]; foliar)	mortality at 200 ppm [1, 3]	mortality at 200 ppm [2, 4]
CN(CC(=O)N(C)c1cn(-c2cccnc2)nc1Cl)C(=O)OC(C)(C)C [Compound F90, tert-Butyl (2-((3-chloro-1-(pyridin-3-yl)-1H-pyrazol-4-yl)(methyl)amino)-2-oxoethyl)(methyl) carbamate]	0 to 80%	80 to 100%	–	–
CCN(C(=O)CCC(=O)NCc1cccc(Cl)c1)c1cn(-c2cccnc2)nc1Cl [Compound F68, N1-(3-Chloro-1-(pyridin-3-yl)-1H-pyrazol-4-yl)-N4-(3-chlorobenzyl)-N1-ethylsuccinamide]	–	–	0 to 80%	80 to 100%
CCN(C(=O)CCC(C)=NOC)c1cn(-c2cccnc2)nc1Cl (mixture of isomers) [Compound F92, (E/Z)-N-(3-chloro-1-(pyridin-3-yl)-1H-pyrazol-4-yl)-N-ethyl-4-(methoxyimino) pentanamide]	–	–	80 to 100%	80 to 100%
CCN(C(=O)CC/C(=N\OCCCCC(F)(F)F)c1cccs1)c1cn(-c2cccnc2)nc1Cl [FA28, (E)-N-(3-Chloro-1-(pyridin-3-yl)-1H-pyrazol-4-yl)-N-ethyl-4-(thiophen-2-yl)-4-(((5,5,5-trifluoropentyl)oxy)imino)butanamide]	–	–	0 to 80%	0 to 80%
CCN(C(=O)CCC(=O)NCC1CC1)c1cn(-c2cccnc2)nc1Cl [Compound F70, N1-(3-Chloro-1-(pyridin-3-yl)-1H-pyrazol-4-yl)-N4-(cyclopropylmethyl)-N1-ethylsuccinamide]	–	–	80 to 100%	80 to 100%
CCN(C(=O)CCCN1CCCC1=O)c1cn(-c2cccnc2)nc1Cl [FA33, N-(3-Chloro-1-(pyridin-3-yl)-1H-pyrazol-4-yl)-N-ethyl-4-(2-oxopyrrolidin-1-yl)butanamide]	–	–	80 to 100%	80 to 100%
CCN(C(=O)C1CCCN(C(=O)C(C)C)C1)c1cn(-c2cccnc2)nc1Cl (centres unmarked) [FA3, N-(3-Chloro-1-(pyridin-3-yl)-1H-pyrazol-4-yl)-N-ethyl-1-isobutylylpiperidine-3-carboxamide]	–	–	80 to 100%	80 to 100%
CCN(C(=O)C1CCN(C(C)=O)CC1)c1cn(-c2cccnc2)nc1Cl [Compound F61, 1-Acetyl-N-(3-chloro-1-(pyridin-3-yl)-1H-pyrazol-4-yl)-N-ethylpiperidine-4-carboxamide]	–	–	80 to 100%	0 to 80%
CN(C(=O)CCN1CCCCC1=O)c1cn(-c2cccnc2)nc1Cl [Compound F49, N-(3-Chloro-1-(pyridin-3-yl)-1H-pyrazol-4-yl)-N-methyl-3-(2-oxopiperidin-1-yl)propanamide]	–	–	80 to 100%	80 to 100%
CCN(C(=O)CC/C(=N/OCC1CC1(F)F)c1cccs1)c1cn(-c2cccnc2)nc1Cl (centres unmarked) [FA39, (Z)-N-(3-Chloro-1-(pyridin-3-yl)-1H-pyrazol-4-yl)-4-(((2,2-difluorocyclopropyl)methoxy)imino)-N-ethyl-4-(thiophen-2-yl)butanamide]	–	–	0 to 80%	0 to 80%
CCN(C(=O)C1CCN(C(=O)CCC#N)C1)c1cn(-c2cccnc2)nc1Cl (centres unmarked) [FA11, N-(3-Chloro-1-(pyridin-3-yl)-1H-pyrazol-4-yl)-1-(3-cyanopropanoyl)-N-ethylpyrrolidine-3-carboxamide]	–	–	80 to 100%	80 to 100%
CC(=O)N1CCC(C(=O)N(C)c2cn(-c3cccnc3)nc2Cl)CC1 [Compound F29, 1-Acetyl-N-(3-chloro-1-(pyridin-3-yl)-1H-pyrazol-4-yl)-N-methylpiperidine-4-carboxamide]	–	–	80 to 100%	80 to 100%
CCN(C(=O)CNC(=O)CCC(F)(F)F)c1cn(-c2cccnc2)nc1Cl [Compound F97, N-(2-((3-Chloro-1-(pyridin-3-yl)-1H-pyrazol-4-yl)(ethyl)amino)-2-oxoethyl)-4,4,4-trifluorobutanamide]	–	–	80 to 100%	80 to 100%
CCN(C(=O)CCC(=O)N1CCCCC1)c1cn(-c2cccnc2)nc1Cl [Compound F21, N-(3-Chloro-1-(pyridin-3-yl)-1H-pyrazol-4-yl)-N-ethyl-4-oxo-4-(piperidin-1-yl)butanamide]	–	–	0 to 80%	80 to 100%
CN(C(=O)CN1CCCC1=O)c1cn(-c2cccnc2)nc1Cl [Compound F6, N-(3-Chloro-1-(pyridin-3-yl)-1H-pyrazol-4-yl)-N-methyl-2-(2-oxopyrrolidin-1-yl)acetamide]	–	–	80 to 100%	80 to 100%
CCN(C(=O)CCC1CN(C)C1=O)c1cn(-c2cccnc2)nc1Cl (centres unmarked) [Compound F119, N-(3-Chloro-1-(pyridin-3-yl)-1H-pyrazol-4-yl)-N-ethyl-3-(1-methyl-2-oxoazetidin-3-yl)propanamide]	–	–	80 to 100%	80 to 100%

Compound	mortality at 200 ppm ([1]; foliar)	mortality at 200 ppm ([2]; foliar)	mortality at 200 ppm [1, 3]	mortality at 200 ppm [2, 4]
CCN(C(=O)CCC(=O)NCc1ccc(C)o1)c1cn(-c2cccnc2)nc1Cl [Compound F13, N1-(3-Chloro-1-(pyridin-3-yl)-1H-pyrazol-4-yl)-N1-ethyl-N4-((5-methylfuran-2-yl)methyl)succinamide]	–	–	0 to 80%	80 to 100%
CCN(C(=O)CNC(=O)/C=C/C(F)(F)F)c1cn(-c2cccnc2)nc1Cl [Compound F99, (E)-N-(2-((3-Chloro-1-(pyridin-3-yl)-1H-pyrazol-4-yl)(ethyl)amino)-2-oxoethyl)-4,4,4-trifluorobut-2-enamide]	–	–	0 to 80%	80 to 100%
CCN(C(=O)CCNC(=O)CC1CC1)c1cn(-c2cccnc2)nc1Cl [Compound F75, N-(3-Chloro-1-(pyridin-3-yl)-1H-pyrazol-4-yl)-3-(2-cyclopropylacetamido)-N-ethylpropanamide]	–	–	80 to 100%	80 to 100%
CCN(C(=O)CC/C(=N/OCC(F)(F)F)c1cccs1)c1cn(-c2cccnc2)nc1Cl [FA35, (E/Z)-N-(3-Chloro-1-(pyridin-3-yl)-1H-pyrazol-4-yl)-N-ethyl-4-(thiophen-2-yl)-4-((2,2,2-trifluoroethoxy)imino)butanamide]	–	–	0 to 80%	80 to 100%
CN(C(=O)[C@@H]1C=C[C@H](NC(=O)OC(C)(C)C)C1)c1cn(-c2cccnc2)nc1Cl [Compound F109, tert-butyl ((1R,4S)-4-((3-chloro-1-(pyridin-3-yl)-1H-pyrazol-4-yl)(methyl)carbamoyl)cyclopent-2-en-1-yl)carbamate]	–	–	0 to 80%	80 to 100%
CCN(C(=O)CCC1CCN(CCC2CC2(F)F)C1=O)c1cn(-c2cccnc2)nc1Cl (centres unmarked) [FA62, N-(3-Chloro-1-(pyridin-3-yl)-1H-pyrazol-4-yl)-3-(1-(2-(2,2-difluorocyclopropyl)ethyl)-2-oxopyrrolidin-3-yl)-N-ethylpropanamide]	–	–	80 to 100%	80 to 100%
CN(C(=O)Cn1ccccc1=O)c1cn(-c2cccnc2)nc1Cl [Compound F3, N-(3-Chloro-1-(pyridin-3-yl)-1H-pyrazol-4-yl)-N-methyl-2-(2-oxopyridin-1(2H)-yl)acetamide]	–	–	80 to 100%	80 to 100%
CN(C(=O)CCC(=O)N1CCCCCC1)c1cn(-c2cccnc2)nc1Cl [Compound F27, 4-(Azepan-1-yl)-N-(3-chloro-1-(pyridin-3-yl)-1H-pyrazol-4-yl)-N-methyl-4-oxobutanamide]	–	–	0 to 80%	80 to 100%
CCN(C(=O)CNC(=O)C1(C)CC1(F)F)c1cn(-c2cccnc2)nc1Cl (centres unmarked) [Compound F1, N-(2-((3-Chloro-1-(pyridin-3-yl)-1H-pyrazol-4-yl)(ethyl)amino)-2-oxoethyl)-2,2-difluoro-1-methylcyclopropanecarboxamide]	–	–	80 to 100%	80 to 100%
CCN(C(=O)C1CCN(C(=O)CCC#N)CC1)c1cn(-c2cccnc2)nc1Cl [FA7, N-(3-Chloro-1-(pyridin-3-yl)-1H-pyrazol-4-yl)-1-(3-cyanopropanoyl)-N-ethylpiperidine-4-carboxamide]	–	–	80 to 100%	< 0%
CCN(C(=O)C(C)Cl)c1cn(-c2cccnc2)nc1Cl (centres unmarked) [Compound C10, 2-Chloro-N-(3-chloro-1-(pyridin-3-yl)-1H-pyrazol-4-yl)-N-ethylpropanamide]	–	–	80 to 100%	80 to 100%
CCN(C(=O)C(C)O)c1cn(-c2cccnc2)nc1Cl (centres unmarked) [Compound C13, N-(3-chloro-1-(pyridin-3-yl)-1H-pyrazol-4-yl)-N-ethyl-2-hydroxypropanamide]	–	–	80 to 100%	80 to 100%
CCN(C(=O)CC1CN(C)C1=O)c1cn(-c2cccnc2)nc1Cl (centres unmarked) [Compound F32, N-(3-chloro-1-(pyridin-3-yl)-1H-pyrazol-4-yl)-N-ethyl-2-(1-methyl-2-oxoazetidin-3-yl)acetamide]	–	–	80 to 100%	80 to 100%
O=C(CCC(=O)N(CC1CC1)c1cn(-c2cccnc2)nc1Cl)N1CCCCCC1 [Compound F18, 4-(Azepan-1-yl)-N-(3-chloro-1-(pyridin-3-yl)-1H-pyrazol-4-yl)-N-(cyclopropylmethyl)-4-oxobutanamide]	–	–	0 to 80%	80 to 100%
CCN(C(=O)CCC(=O)NCCF)c1cn(-c2cccnc2)nc1Cl [Compound F43, N1-(3-Chloro-1-(pyridin-3-yl)-1H-pyrazol-4-yl)-N1-ethyl-N4-(2-fluoroethyl)succinamide]	–	–	0 to 80%	80 to 100%
